Assays:
healthy male subjects [1] = test: Bleeding time test (Surgicutt incision, forearm); assay type: in vivo, human; conditions: rivaroxaban 15 mg single dose, clopidogrel 300 mg day 1 + 75 mg day 2, combination with rivaroxaban on day 2; for least squares-mean relative change in bleeding time compared with baseline: 4 h after last drug administration
Protocol: Bleeding time tests were performed in accordance with the protocol reported by the International Committee on Standardization of the Bleeding Time. Bleeding time measurements depend on the method and on who carries out the procedure; therefore, results vary greatly between studies. To reduce variability, one study nurse was specifically trained in the procedure of the test before this study. The same study nurse carried out all measurements at all time points for each subject. […] A sphygmomanometer on the upper arm was inflated to 40 mmHg for 30 seconds before the incision was made and maintained at 40 mmHg until the end of the procedure. The bleeding time incision was made by placing a Surgicutt Adult® (ITC, Edison, NJ, USA) device (used in accordance with the recommendations of the manufacturer, as specified in the package insert) gently against the forearm, perpendicular (vertical) to the elbow crease. […] The bleeding time was measured in seconds as the total duration of blood flow from the wound. […] Statistical evaluations were performed with the use of the SAS® software package version 8.2 at the Department of Global Pharmacometrics (Bayer HealthCare AG, Wuppertal, Germany). […] Student's paired t tests were used to compare treatments for these parameters, and 90% confidence intervals (CIs) for the difference were calculated.

Factor Xa = target: T1, Factor Xa (Homo sapiens, UniProt P00742); test: Factor Xa activity in plasma after dosing; assay type: in vivo; conditions: for median value of Factor Xa activity: 4 h after administration, rivaroxaban 15 mg
T1 construct: Blood samples were centrifuged to obtain plasma samples, which were then frozen and stored below −15 °C until analysis; from tissue; host or cells: plasma from blood samples of the healthy male study subjects
Protocol: (§1) The effects of rivaroxaban and clopidogrel on Factor Xa activity, prothrombin time (PT), activated partial thromboplastin time (aPTT) and HepTest were assessed, as described previously. Factor Xa activities above 0.1 IU/mL (the lower limit of quantification) were determined with a precision of 3.8–6.6% and an accuracy of 96–114%. […] When only clopidogrel was administered (treatment A), blood samples were taken after 4, 8, 24 and 48 h. Blood samples were centrifuged to obtain plasma samples, which were then frozen and stored below −15 °C until analysis.

[2] = Prothrombin time (PT) in plasma after dosing; assay type: in vivo, human
Protocol: as §1

[3] = Activated partial thromboplastin time (aPTT) in plasma after dosing; assay type: in vivo, human; conditions: combination compared with rivaroxaban alone
Protocol: as §1

[4] = HepTest in plasma after dosing; assay type: in vivo, human; conditions: combination compared with rivaroxaban alone
Protocol: as §1

platelet aggregation = test: ADP-stimulated platelet aggregation (Born method); assay type: in vivo, human; conditions: for platelet aggregation, median relative change from baseline: 4 h after drug administration
Protocol: A clopidogrel response screening period preceded the study (Figure 1). […] The initial dose of 300 mg clopidogrel was chosen for this study because this loading dose is generally used in patients with ACS [24]. A second dose of 75 mg clopidogrel was selected because this is the standard daily dose recommended by guidelines for use in patients with a variety of relevant conditions, including atrial fibrillation, stroke and ACS [24]. […] This method is based on the turbidimetric determination of cell suspensions. […] Measurement was performed at 650 nm. The individual response of changes of platelet aggregation to baseline was determined using 29 µM ADP in addition to an optimized individual activating regimen using ADP. […] Statistical evaluations were performed with the use of the SAS® software package version 8.2 at the Department of Global Pharmacometrics (Bayer HealthCare AG, Wuppertal, Germany). […] Student’s paired t tests were used to compare treatments for these parameters, and 90% confidence intervals (CIs) for the difference were calculated.

[5] = test system: GPIIb/IIIa, P-selectin and annexin V; test: Platelet activation markers by flow cytometry; assay type: in vivo, human; conditions: 4 h after drug administration, relative to baseline
Protocol: To assure uniformity of assays and to minimize sample manipulation, blood samples were mixed gently and processed without delay. Platelet-rich plasma was prepared by slow centrifugation, and platelets were labelled with monoclonal antibodies against GPIIb/IIIa (CD41a), […] (CD62p) and annexin V protein. Samples were analysed using a COULTER® EPICS® XLTM flow cytometer (Beckman Coulter, Inc.; Brea, CA, USA). The average immunofluorescence of the total population or the fraction of activated events was determined and compared with individual control samples before treatment.

healthy male subjects [6] = test: Safety and tolerability; assay type: in vivo, human; conditions: single dose of 15 mg rivaroxaban
Protocol: Safety and tolerability were assessed subjectively and objectively. Subjective assessment was obtained by asking the subjects non-leading questions about the occurrence of any adverse events or by spontaneous reporting of adverse events. Adverse events were classified according to their degree of severity. Objective tolerability was evaluated by monitoring cardiovascular parameters including heart rate, blood pressure and ECG parameters. In addition, blood tests, clinical chemistry, urine test and drug screening were part of the objective assessment.

[7] = individually optimized concentration of ADP
[8] = 12 h after administration of 15 mg rivaroxaban

T1 sequence (P00742 235-488 limits assumed): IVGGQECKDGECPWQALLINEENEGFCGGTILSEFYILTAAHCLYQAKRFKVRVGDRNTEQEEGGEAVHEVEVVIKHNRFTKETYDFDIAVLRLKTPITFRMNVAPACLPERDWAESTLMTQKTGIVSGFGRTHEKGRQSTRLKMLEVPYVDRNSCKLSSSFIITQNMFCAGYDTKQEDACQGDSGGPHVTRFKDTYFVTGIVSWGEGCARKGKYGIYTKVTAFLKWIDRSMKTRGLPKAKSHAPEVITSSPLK
T1 sequence (P00742 41-179 partner limits assumed): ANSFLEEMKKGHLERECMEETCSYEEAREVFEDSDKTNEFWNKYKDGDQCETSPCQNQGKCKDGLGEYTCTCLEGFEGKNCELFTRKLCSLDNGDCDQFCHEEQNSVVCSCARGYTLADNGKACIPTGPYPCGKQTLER

| Compound | least squares-mean relative change in bleeding time compared with baseline (healthy male subjects [1]) [fold] | median value of Factor Xa activity (Factor Xa) [U/mL] | effect on Factor Xa activity (Factor Xa; combination compared with rivaroxaban alone) | effect on PT ([2]; compared with baseline, combination compared with rivaroxaban monotherapy) | effect on aPTT [3] | effect on HepTest [4] | platelet aggregation, median relative change from baseline (platelet aggregation; 29 µM ADP) | platelet aggregation, median relative change from baseline (platelet aggregation; [7]) | number of subjects identified as clopidogrel responders (more than 40% inhibition of platelet aggregation compared with baseline) (platelet aggregation; of 27 healthy male subjects, single dose of 300 mg clopidogrel, 24 h after administration) | effect on platelet activation markers [5] | bleeding time, overall least squares-means (healthy male subjects [1]; clopidogrel responders) [times baseline] | Factor Xa inhibition, return to values within % of baseline (Factor Xa; [8]) [%] | PT, return to values within % of baseline [2, 8] [%] | effect on platelet aggregation (platelet aggregation; optimized ADP or fixed 29 µM ADP) | safety and tolerability (healthy male subjects [6]) |
| --- | --- | --- | --- | --- | --- | --- | --- | --- | --- | --- | --- | --- | --- | --- | --- |
| COC(=O)[C@H](c1ccccc1Cl)N1CCc2sccc2C1 [clopidogrel] | 2.0 | 0.9 | no effect | did not change | did not affect | did not affect | 0.340 | 0.249 | 14 | pronounced decrease | – | – | – | – | – |
| O=C(NC[C@H]1CN(c2ccc(N3CCOCC3=O)cc2)C(=O)O1)c1ccc(Cl)s1 [rivaroxaban] | 1.1 | 0.57 | – | – | – | – | 1.1 | 0.9 | – | no relevant effect | 1.13 | ≤ 10 | ≤ 10 | not affected | safe and well tolerated |
